In patent publication US7705016B2, “Regulation of food intake by modulation of long-chain fatty acyl-CoA levels in the hypothalamus” (Albert Einstein College of Medicine of Yeshiva University, priority 2003, dated 2010):

Key:
Glc-6-Pase mRNA = assay: Hepatic Glc-6-Pase mRNA after ICV OA (northern blot); assay type: in vivo, rat
Procedure: Northern Blot Analysis. Total RNA was isolated from hypothalami and liver with Trizol (Invitrogen Corp., California, USA). NPY, Glc-6-Pase or PEPCK expression was measured by northern blot analysis. Hypothalamic RNA was analyzed using probes for prepro-NPY and β-actin. To assess the effect of ICV OA on the expression of hepatic enzymes, total RNA was isolated from freeze-clamped liver tissues from rats subjected to insulin clamp studies. Glc-6-Pase and PEPCK cDNA were obtained as previously described (Combs et al., 2001; Massillon et al., 1996; 1998). Probes were labeled with [α-^32P] dCTP using a random primer kit (Stratagene). Quantification was performed by scanning densitometry, normalizing for β-actin signal and 18S ribosomal RNA to correct for loading variabilities. Effect of ICV OA on the hepatic expression of Glc-6-Pase and PEPCK. The potent effects of the central administration of OA on hepatic glucose fluxes prompted us to examine whether changes in the liver mRNA levels of key metabolic enzymes can partly account for these effects. Thus, we next measured the liver abundance of Glc-6-Pase and PEPCK mRNA as a function of 18S ribosomal RNA (FIG. 9d) or β-actin mRNA (not shown) in tissue samples obtained after ICV infusion of either OA or vehicle in caloric restricted and over-fed rats. […]

rats = rats fed standard chow, prolonged (16 h) fasting; cited from earlier work
CPT1M mRNA = CPT1M mRNA in hypothalamic nuclei micro punches by real-time PCR after ICV injection; assay type: in vivo, rat; conditions: 3 days after ICV injection
Procedure: (§1) Surgical implantation of ICV cannulae was performed on day 1 (˜3 weeks prior to the in vivo study). Full recovery of body weight and food intake was achieved by day 7. Rats randomized for ribozyme treatment received an ICV injection of CPT1L-Ribo, CPT inhibitors or controls on day 17. The experimental group treated with TDGA received ICV injection of the inhibitor on day 21, 6 hr prior to the harvesting of brains. Panels B. and C. show quantitation of CPT1L (B) and CPT1M (C) mRNA by real-time PCR. RNA was purified from individual hypothalamic nuclei (PVN, LHA, and arcuate), which were obtained by micro punch technique 3 days after ICV injection of pTarget control (▪; N=4) or CPT1LRibo (□; N=5). […] CPT1 activity was measured in the particulate fraction of protein extracts from animals treated with ICV control injections (▪; N=6, receiving aCSF+2% DMSO or Control Ribo), TDGA ( ?; N=6), or CPTL-Ribo (□; N=5). […] Levels of stearoyl-CoA (F) and oleyl-CoA (E) respectively were measured by HPLC in arcuate of rats injected ICV with control compound (▪; ST1340) or ST1326 (□).
(§2) ICV catheters were implanted in male Sprague-Dawley rats by stereotaxic surgery (Obici et al., 2002a; Obici et al., 2001; Liu et al., 1998). […] Thus, we next measured CPT1 activity in ARC and in whole hypothalamus. […]
(§3) Quantitation of CPT1 and neuropeptides mRNA by Northern and real-time PCR. […]

CPT1L mRNA = CPT1L mRNA in hypothalamic nuclei micro punches by real-time PCR after ICV injection; assay type: in vivo, rat; conditions: 3 days after ICV injection; adjusted for β-actin
Procedure: as §1, §2, §3

Compound | suppression of hepatic Glc-6-Pase mRNA expression (Glc-6-Pase mRNA; HF55 group, ICV OA vs ICV vehicle) [%] | hepatic Glc-6-Pase mRNA expression (Glc-6-Pase mRNA; HF140 group) | decrease in hypothalamic NPY mRNA compared with ICV vehicle (rats) [%] | CPT1M mRNA expression in hypothalamic nuclei (CPT1M mRNA) | CPT1L mRNA in the arcuate nuclei (ARC) (CPT1L mRNA)
CCCCCCCC/C=C\CCCCCCCC(=O)O [OA, oleic acid] | ~73 | no changes detected | ~50 | – | –
CPT1L-Ribo: plasmid (pTarget, CMV promoter) expressing a hammerhead ribozyme that specifically cleaves rat CPT1L mRNA, complexed to PEI for ICV injection (DNA CUGUACCAAAGAGCUGUAGAGUCCGUGAGGACGAAACGCCGCUCACAAUG) | – | – | – | not appreciably altered | marked decrease
